The record followed here is PubChem BioAssay AID264 (DTP/NCI, 2004).

Molecules are shown by their SMILES. Several values for one entry are separate records, joined by “and”; a condition that tells them apart may be missing. Equal values may be shown once. Records with an inconclusive call do not appear.

In this experiment the test system is nude mice, LX-1 lung xenograft intrarenal, tumor weight T/C. Briefly: NCI In Vivo Anticancer Drug Screen. Data for tumor model Human Lung LX-1 Xenograft (intrarenal inoculation) in NU/NU Swiss (nude) mice. The settings on record: endpoint: mean tumor weight change, higher = larger tumour. Summed up: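 In vivo, transplantable tumor; compound vs vehicle arms; tumor size measured; value = T/C.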

Setting [1] is: dose: 25.0 mg/kg/injection, schedule: Q01DX010 (sc), vehicle: Klucel (hydroxypropylcellulose) (HPC).
Setting [2] is: dose: 100.0 mg/kg/injection, schedule: Q04DX003 (sc), vehicle: saline with Tween-80.
The mark [3] stands for this setting: dose: 800.0 mg/kg/injection, schedule: Q04DX003 (sc), vehicle: saline with Tween-80.
Where [4] appears, read: dose: 200.0 mg/kg/injection, schedule: Q04DX003 (sc), vehicle: saline with Tween-80.
Where [5] appears, read: dose: 300.0 mg/kg/injection, schedule: Q04DX003 (sc), vehicle: saline with Tween-80.
Setting [6] is: dose: 600.0 mg/kg/injection, schedule: Q04DX003 (sc), vehicle: saline with Tween-80.
The mark [7] stands for this setting: dose: 1200.0 mg/kg/injection, schedule: Q04DX003 (sc), vehicle: saline with Tween-80.
Where [8] appears, read: dose: 150.0 mg/kg/injection, schedule: Q04DX003 (sc), vehicle: saline with Tween-80.
[9] abbreviates: dose: 2400.0 mg/kg/injection, schedule: Q04DX003 (sc), vehicle: saline with Tween-80.
Where [10] appears, read: dose: 300.0 mg/kg/injection, schedule: Q04DX003 (sc), vehicle: suspension in saline.
The mark [11] stands for this setting: dose: 1200.0 mg/kg/injection, schedule: Q04DX003 (sc), vehicle: suspension in saline.

`O=C(CCCN1CCC(O)(c2cccc(C(F)(F)F)c2)CC1)c1ccc(F)cc1`: the T/C reads like this: (dose: 6.25 mg/kg/injection, schedule: Q01DX010 (sc), vehicle: Klucel (hydroxypropylcellulose) (HPC)) 52 % of control; (dose: 12.5 mg/kg/injection, schedule: Q01DX010 (sc), vehicle: Klucel (hydroxypropylcellulose) (HPC)) 96 % of control; under setting [1], 60 % of control; (dose: 50.0 mg/kg/injection, schedule: Q01DX010 (sc), vehicle: Klucel (hydroxypropylcellulose) (HPC)) 45 % of control and 54 % of control.
Turning to `C=C1C(=O)OC2CC(C)C3C4OC4C(O)C3(C)C(O)C12` (stereo not drawn), the T/C was 97 % of control under setting [2] and 75 % of control under setting [3].
Regarding `Nc1ccccc1N`, the T/C is 55 % of control under setting [1]; 66 % of control and 75 % of control (dose: 100.0 mg/kg/injection, schedule: Q01DX010 (sc), vehicle: Klucel (hydroxypropylcellulose) (HPC)); 83 % of control (dose: 200.0 mg/kg/injection, schedule: Q01DX010 (sc), vehicle: Klucel (hydroxypropylcellulose) (HPC)).
Take `CN(C)C=O`: the T/C reads like this: (dose: 800.0 mg/kg/injection, schedule: Q01DX010 (sc), vehicle: saline) 91 % of control; (dose: 1600.0 mg/kg/injection, schedule: Q01DX010 (sc), vehicle: saline) 74 % of control.
Regarding `NC1(C(=O)O)CCCC1`, the T/C runs as follows: (dose: 12.0 mg/kg/injection, schedule: Q01DX010 (sc), vehicle: saline) 94 % of control; (dose: 24.0 mg/kg/injection, schedule: Q01DX010 (sc), vehicle: saline) 66 % of control; (dose: 48.0 mg/kg/injection, schedule: Q01DX010 (sc), vehicle: saline) 57 % of control; (dose: 50.0 mg/kg/injection, schedule: Q01DX010 (sc), vehicle: saline) 32 % of control; (dose: 96.0 mg/kg/injection, schedule: Q01DX010 (sc), vehicle: saline) 29 % of control.
Take `CCCCCCOC(CN(C)C)C(Cl)(Cl)Cl` (stereo not drawn): the T/C under setting [4] is 121 % of control; the T/C (dose: 400.0 mg/kg/injection, schedule: Q04DX003 (sc), vehicle: saline with Tween-80) is 95 % of control; the T/C under setting [3] was 59 % of control; the T/C (dose: 1600.0 mg/kg/injection, schedule: Q04DX003 (sc), vehicle: saline with Tween-80) was 74 % of control.
As for `O=C(Nc1cccc(Cl)c1)ON1C(=O)C2C(C1=O)C1(Cl)C(Cl)C(Cl)C2(Cl)C1(Cl)Cl` (stereo not drawn), the T/C runs as follows: under setting [5], 81 % of control; under setting [6], 85 % of control; under setting [7], 83 % of control.
Turning to `CN=C(N)N/N=C(\C)c1ccc2c(c1)Cc1ccccc1-2`, the T/C was 152 % of control under setting [8], 117 % of control under setting [5] and 106 % of control under setting [6].
With `Nc1nc(-c2ccccc2)c(Br)c(=O)[nH]1`, the T/C reads like this: under setting [5], 77 % of control; under setting [6], 69 % of control; under setting [7], 54 % of control; under setting [9], 66 % of control.
Consider `O=[n+]1c2ccccc2n([O-])c2ccccc21.[Cl][Ni][Cl]`, for which the T/C is, setting by setting: (dose: 18.75 mg/kg/injection, schedule: Q04DX003 (sc), vehicle: saline with Tween-80) 122 % of control; (dose: 75.0 mg/kg/injection, schedule: Q04DX003 (sc), vehicle: saline with Tween-80) 150 % of control and 163 % of control; under setting [8], 226 % of control.
Take `CC1(C)OCC2OC=CC(=O)C2O1` (stereo not drawn): the T/C under setting [5] was 89 % of control.
On to `CCN(CC)CCNc1ccc(C)c2sc3ccc(O)cc3c(=O)c12`, for which the T/C was 71 % of control under setting [5], 98 % of control under setting [6], 83 % of control under setting [7] and 52 % of control under setting [9].
With `CC1=CC(C)(C)Nc2ccc(CSc3ccccc3)cc21`, the T/C by setting is: (dose: 75.0 mg/kg/injection, schedule: Q01DX010 (sc), vehicle: saline + Tween-80 + alcohol) 105 % of control; (dose: 150.0 mg/kg/injection, schedule: Q01DX010 (sc), vehicle: saline + Tween-80 + alcohol) 105 % of control; (dose: 300.0 mg/kg/injection, schedule: Q01DX010 (sc), vehicle: saline + Tween-80 + alcohol) 85 % of control.
In the case of `CN(C=O)C(C(=O)Nc1cccc2c(OC(=O)C(N(C)C=O)(N(C)C=O)N(C)C=O)c(N=Nc3ccc(S(=O)(=O)Nc4nccs4)cc3)cc(N=Nc3ccc(S(=O)(=O)Nc4nccs4)cc3)c12)(N(C)C=O)N(C)C=O` (tested in a mixture with another compound), the T/C by setting is: under setting [8], 109 % of control; under setting [5], 71 % of control; under setting [6], 120 % of control; under setting [7], 95 % of control.
Regarding `CN(C)C(=O)SC1=C(c2c(Cl)cccc2Cl)C(=O)c2ccccc21`, the T/C (dose: 300.0 mg/kg/injection, schedule: Q04DX003 (sc), vehicle: Klucel (hydroxypropylcellulose) (HPC)) is 84 % of control; the T/C (dose: 600.0 mg/kg/injection, schedule: Q04DX003 (sc), vehicle: Klucel (hydroxypropylcellulose) (HPC)) is 106 % of control; the T/C (dose: 1200.0 mg/kg/injection, schedule: Q04DX003 (sc), vehicle: Klucel (hydroxypropylcellulose) (HPC)) was 65 % of control; the T/C (dose: 2400.0 mg/kg/injection, schedule: Q04DX003 (sc), vehicle: Klucel (hydroxypropylcellulose) (HPC)) was 92 % of control.
Take `COC1/C=C/O[C@@]2(C)Oc3c(C)c(O)c4c(O)c(cc(O)c4c3C2=O)NC(=O)/C(C)=C\C=C\[C@H](C)C(O)[C@@H](C)[C@@H](O)[C@@H](C)[C@H](OC(C)=O)[C@@H]1C` (stereo partly drawn): the T/C by setting is: under setting [10], 60 % of control; (dose: 600.0 mg/kg/injection, schedule: Q04DX003 (sc), vehicle: suspension in saline) 84 % of control; under setting [11], 53 % of control; (dose: 2400.0 mg/kg/injection, schedule: Q04DX003 (sc), vehicle: suspension in saline) 64 % of control.
`COc1cc(OC)c(NC(=O)ON2C(=O)c3ccccc3C2=O)cc1Cl`: the T/C runs as follows: (dose: 25.0 mg/kg/injection, schedule: Q04DX003 (sc), vehicle: saline with Tween-80) 93 % of control; (dose: 50.0 mg/kg/injection, schedule: Q04DX003 (sc), vehicle: saline with Tween-80) 79 % of control; under setting [2], 68 % of control; under setting [4], 92 % of control.
For `NC(C(=O)O)c1ccc(CBr)cc1` (stereo not drawn), the T/C (dose: 300.0 mg/kg/injection, schedule: Q04DX003 (sc), vehicle: acid diluted with saline) is 96 % of control.
For `COc1cccc2c1C(=O)c1c(O)c3c(c(O)c1C2=O)C[C@@](O)(C(=O)CO)C[C@@H]3OC1CC(N)C(OC)C(C)O1` (stereo partly drawn), the T/C is 29 % of control (dose: 0.75 mg/kg/injection, schedule: Q01DX010 (sc), vehicle: saline) and 14 % of control (dose: 3.0 mg/kg/injection, schedule: Q01DX010 (sc), vehicle: saline).
For `Nc1cccc(=O)[nH]1`, the T/C was 100 % of control (dose: 300.0 mg/kg/injection, schedule: Q04DX003 (sc), vehicle: saline); 110 % of control (dose: 600.0 mg/kg/injection, schedule: Q04DX003 (sc), vehicle: saline); 105 % of control (dose: 1200.0 mg/kg/injection, schedule: Q04DX003 (sc), vehicle: saline).
Regarding `CC1=CC(=NN=c2cc(C)n([O-])c(C)c2)C=C(C)[N+]1=O`, the T/C under setting [10] is 96 % of control and the T/C under setting [11] was 77 % of control.
Turning to `CSC1SCC2C(=O)N(C)C(C(C)C)C(=O)OCC(NC(=O)c3cnc4ccccc4n3)C(=O)NC(C)C(=O)N(C)C1C(=O)N(C)C(C(C)C)C(=O)OCC(NC(=O)c1cnc3ccccc3n1)C(=O)NC(C)C(=O)N2C` (stereo not drawn), the T/C (dose: 15.0 micrograms/kg/injection, schedule: Q01DX010 (sc), vehicle: saline) is 97 % of control; the T/C (dose: 30.0 micrograms/kg/injection, schedule: Q01DX010 (sc), vehicle: saline) is 71 % of control; the T/C (dose: 60.0 micrograms/kg/injection, schedule: Q01DX010 (sc), vehicle: saline) is 48 % of control; the T/C (dose: 120.0 micrograms/kg/injection, schedule: Q01DX010 (sc), vehicle: saline) was 36 % of control; the T/C (dose: 240.0 micrograms/kg/injection, schedule: Q01DX010 (sc), vehicle: saline) is 65 % of control.
Turning to `COC1=C(C)C(=O)C2=C(C1=O)C1C3CC4=C(C(=O)C(OC)=C(C)C4=O)C(CNC(=O)C(C)=O)N3C(C#N)C(C2)N1C` (stereo not drawn), the T/C reads like this: (dose: 1.0 mg/kg/injection, schedule: Q04DX003 (sc), vehicle: Klucel (hydroxypropylcellulose) (HPC)) 111 % of control; (dose: 2.0 mg/kg/injection, schedule: Q04DX003 (sc), vehicle: Klucel (hydroxypropylcellulose) (HPC)) 105 % of control; (dose: 4.0 mg/kg/injection, schedule: Q04DX003 (sc), vehicle: Klucel (hydroxypropylcellulose) (HPC)) 59 % of control.
